From patent publication US20230416275A1, “MODULATORS OF CYSTIC FIBROSIS TRANSMEMBRANE CONDUCTANCE REGULATOR” (VERTEX PHARMACEUTICALS INCORPORATED, priority 2020, published 2023)
pEC50: −log10 of the molar value.

Biological target: CFTR-mediated chloride transport in human intestinal epithelial enteroid cells (Homo sapiens, UniProt P13569)
Experiment: Membrane potential dye, Enteroid Assay A
Format: cell-based
Details: for Ent. A Max Activity (%): % of chloride transport of triple combination control (3 μM N-[(6-amino-2-pyridyl)sulfonyl]-6-(3-fluoro-5-isobutoxy-phenyl)-2-[(4S)-2,2,4-trimethylpyrrolidin-1-yl]pyridine-3-carboxamide, 3 μM tezacaftor, 300 nM acute ivacaftor); for pEC50: enteroid cells, 18-24 hours incubation, acute 10 μM forskolin and 300 nM ivacaftor, read-out: Ent. A EC50
Method: Base medium (ADF+++) consisted of Advanced DMEM/Ham's F12, 2 mM Glutamax, 10 mM HEPES, […] penicillin/streptomycin.
Intestinal enteroid maintenance medium (IEMM) consisted of ADF+++, 1×B27 supplement, 1×N2 supplement, 1.25 mM N-acetyl cysteine, 10 mM Nicotinamide, 50 ng/mL hEGF, 10 nM Gastrin, 1 μg/mL hR-spondin-1, 100 ng/mL hNoggin, TGF-b type 1 inhibitor A-83-01, 100 μg/mL Primocin, 10 μM P38 MAPK inhibitor SB202190.
Bath 1 Buffer consisted of 1 mM MgCl2, 160 mM NaCl, 4.5 mM KCl, 10 mM HEPES, 10 mM Glucose, 2 mM CaCl2.
Chloride Free Buffer consisted of 1 mM Magnesium Gluconate, 2 mM Calcium Gluconate, 4.5 mM Potassium Gluconate, 160 mM Sodium Gluconate, 10 mM HEPES, 10 mM Glucose.
Bath1 Dye Solution consisted of Bath 1 Buffer, 0.04% Pluronic F127, 20 μM Methyl Oxonol, 30 μM CaCCinh-A01, 30 μM Chicago Sky Blue.
Chloride Free Dye Solution consisted of Chloride Free Buffer, 0.04% Pluronic F127, 20 μM Methyl Oxonol, 30 μM CaCCinh-A01, 30 μM Chicago Sky Blue.
Chloride Free Dye Stimulation Solution consisted of Chloride Free Dye Solution, 10 μM forskolin, 100 μM IBMX, and 300 nM Compound III.
Human intestinal epithelial enteroid cells were obtained from the Hubrecht Institute for Developmental Biology and Stem Cell Research, Utrecht, The Netherlands and expanded in T-Flasks as previously described (Dekkers J F, Wiegerinck C L, de Jonge H R, Bronsveld I, Janssens H M, de Winter-de Groot K M, Brandsma A M, de Jong N W M, Bijvelds M J C, Scholte B J, Nieuwenhuis E E S, van den Brink S, Clevers H, van der Ent C K, Middendorp S and M Beekman J M. A functional CFTR assay using primary cystic fibrosis intestinal organoids. Nat Med. 2013 July; 19(7):939-45).
c. Enteroid Cell Harvesting and Seeding
Cells were recovered in cell recovery solution, collected by centrifugation at 650 rpm for 5 minutes at 4° C., resuspended in TrypLE and incubated for 5 minutes at 37° C. Cells were then collected by centrifugation at 650 rpm for 5 minutes at 4° C. and resuspended in IEMM containing 10 μM ROCK inhibitor (RI). The cell suspension was passed through a 40 μm cell strainer and resuspended at 1×10^6 cells/mL in IEMM containing 10 μM RI. Cells were seeded at 5000 cells/well into multi-well plates and incubated for overnight at 37° C., 95% humidity and 5% CO2 prior to assay.
d. Membrane Potential Dye, Enteroid Assay A
Enteroid cells were incubated with test compound in IEMM for 18-24 hours at 37° C., 95% humidity and 5% CO2. […] Briefly, cells were washed 5 times in Bath 1 Buffer. Bath 1 Dye Solution was added, and the cells were incubated for 25 minutes at room temperature. Following dye incubation, cells were washed 3 times in Chloride Free Dye Solution. Chloride transport was initiated by addition of Chloride Free Dye Stimulation Solution and the fluorescence signal was read for 15 minutes. […] Chloride transport was then expressed as a percentage of the chloride transport following treatment with 3 μM N-[(6-amino-2-pyridyl)sulfonyl]-6-(3-fluoro-5-isobutoxy-phenyl)-2-[(4S)-2,2,4-trimethylpyrrolidin-1-yl]pyridine-3-carboxamide, 3 μM (R)-1-(2,2-difluorobenzo[d][1,3]dioxol-5-yl)-N-(1-(2,3-dihydroxypropyl)-6-fluoro-2-(1-hydroxy-2-methylpropan-2-yl)-1H-indol-5-yl)cyclopropanecarboxamide and 300 nM acute N-[2,4-bis(1,1-dimethylethyl)-5-hydroxyphenyl]-1,4-dihydro-4-oxoquinoline-3-carboxamide triple combination control (% Activity).

Chain of CFTR-mediated chloride transport in human intestinal epithelial enteroid cells (P13569 with tags, fused parts or gaps DEL508-508): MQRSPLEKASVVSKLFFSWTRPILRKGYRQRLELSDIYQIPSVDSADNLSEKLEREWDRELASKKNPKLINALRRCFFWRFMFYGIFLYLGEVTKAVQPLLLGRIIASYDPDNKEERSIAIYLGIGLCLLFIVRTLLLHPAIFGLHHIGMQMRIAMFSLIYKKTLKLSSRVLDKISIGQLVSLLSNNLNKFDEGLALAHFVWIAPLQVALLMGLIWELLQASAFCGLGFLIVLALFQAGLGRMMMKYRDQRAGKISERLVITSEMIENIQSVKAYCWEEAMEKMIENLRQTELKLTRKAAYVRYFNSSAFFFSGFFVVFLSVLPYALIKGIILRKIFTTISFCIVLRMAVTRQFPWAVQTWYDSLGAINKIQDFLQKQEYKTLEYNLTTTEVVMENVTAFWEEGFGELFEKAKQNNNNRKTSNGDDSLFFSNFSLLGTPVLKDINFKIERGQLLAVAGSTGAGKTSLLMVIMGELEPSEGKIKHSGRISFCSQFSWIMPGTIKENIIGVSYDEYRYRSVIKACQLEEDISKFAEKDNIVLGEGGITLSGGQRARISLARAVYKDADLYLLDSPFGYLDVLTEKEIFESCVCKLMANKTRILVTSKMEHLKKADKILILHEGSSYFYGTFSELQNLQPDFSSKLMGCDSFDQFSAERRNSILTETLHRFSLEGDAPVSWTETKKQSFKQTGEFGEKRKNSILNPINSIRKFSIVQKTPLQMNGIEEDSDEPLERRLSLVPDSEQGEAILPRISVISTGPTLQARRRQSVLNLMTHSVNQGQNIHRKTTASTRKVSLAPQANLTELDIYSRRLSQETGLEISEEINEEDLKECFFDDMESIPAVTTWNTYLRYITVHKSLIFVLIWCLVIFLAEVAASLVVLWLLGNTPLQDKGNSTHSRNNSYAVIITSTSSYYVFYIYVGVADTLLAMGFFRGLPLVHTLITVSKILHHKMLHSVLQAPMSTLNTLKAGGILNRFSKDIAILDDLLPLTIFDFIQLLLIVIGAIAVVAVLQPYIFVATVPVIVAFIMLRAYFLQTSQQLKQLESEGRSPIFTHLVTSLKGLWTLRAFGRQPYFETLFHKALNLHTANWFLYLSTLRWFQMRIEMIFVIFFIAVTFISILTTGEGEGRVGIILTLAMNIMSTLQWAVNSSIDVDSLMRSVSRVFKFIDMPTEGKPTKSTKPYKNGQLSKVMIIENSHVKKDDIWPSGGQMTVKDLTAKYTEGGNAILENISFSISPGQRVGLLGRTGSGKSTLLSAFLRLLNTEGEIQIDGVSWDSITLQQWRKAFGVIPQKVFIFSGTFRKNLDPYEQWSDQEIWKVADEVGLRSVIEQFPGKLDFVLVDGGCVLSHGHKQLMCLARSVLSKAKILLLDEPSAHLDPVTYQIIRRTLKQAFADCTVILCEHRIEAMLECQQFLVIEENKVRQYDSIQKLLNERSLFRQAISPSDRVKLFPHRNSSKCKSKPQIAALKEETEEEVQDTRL

Row | SMILES | pEC50 | Ent. A Max Activity (%)
1 | Cc1cccc(C)c1-c1cc2nc(n1)NS(=O)(=O)c1cccc(c1)NC(=O)[C@@H]1C[C@@H](CN(CC(C)C(F)(F)F)C1)O2 (some centres unmarked) [Compound 29] | > 6.00 | +++ (+++ is >60%)
2 | Cc1cccc(C)c1-c1cc2nc(n1)NS(=O)(=O)c1cccc(c1)NC(=O)C1CC(O2)C(C)(C)N(Cc2ccccc2)C1 (single isomer, unassigned) [Compound 73, 5-Benzyl-19-(2,6-dimethylphenyl)-4,4-dimethyl-2-oxa-15λ^6-thia-5,9,16,18,21-pentaazatetracyclo[15.3.1.13,7.110,14]tricosa-1(21),10,12,14(22),17,19-hexaene-8,15,15-trione] | > 6.00 | + (+ is <30%)
3 | Cc1cccc(C)c1-c1cc2nc(n1)NS(=O)(=O)c1cccc(c1)NC(=O)[C@@H]1C[C@@H](CN(CC3C4(CC4)C34CC4)C1)O2 [Compound 6, (3S,7R)-19-(2,6-Dimethylphenyl)-5-({dispiro[2.0.24.13]heptan-7-yl}methyl)-2-oxa-15λ^6-thia-5,9,16,18,21-pentaazatetracyclo[15.3.1.13,7.110,14]tricosa-1(21),10(22),11,13,17,19-hexaene-8,15,15-trione] | > 6.00 | +++ (+++ is >60%)
4 | Cc1cccc(C)c1-c1cc2nc(n1)NS(=O)(=O)c1cccc(c1)NC(=O)[C@@H]1C[C@H](O2)C(=O)N(CCC(C)(C)C)C1 [Compound 89] |  | + (+ is <30%)
5 | Cc1cccc(C)c1-c1cc2nc(n1)NS(=O)(=O)c1cccc(c1)NC(=O)C1CC(O2)C(=O)N(CCC(C)(C)C)C1 (centres unmarked) [Compound 92] |  | + (+ is <30%)
6 | Cc1cccc(C)c1-c1cc2nc(n1)NS(=O)(=O)c1cccc(c1)NC(=O)[C@@H]1C[C@@H](CN1C(=O)OC(C)(C)C)O2 [Compound 80] |  | + (+ is <30%)
7 | Cc1cccc(C)c1-c1cc2nc(n1)NS(=O)(=O)c1cccc(c1)NC(=O)[C@@H]1C[C@@H](CN(CCC3CCOCC3)C1)O2 [Compound 38] | 5.52 to 6.00 | ++ (++ is 30-60%)
8 | Cc1cccc(C)c1-c1cc2nc(n1)NS(=O)(=O)c1cccc(c1)NC(=O)C1CC(O2)C(=O)N(CCC(C)(C)C)C1 (centres unmarked) [Compound 93] |  | ++ (++ is 30-60%)
9 | Cc1cccc(C)c1-c1cc2nc(n1)NS(=O)(=O)c1cccc(c1)NC(=O)[C@@H]1C[C@@H](CN(Cc3ccccc3)C1)O2 [Compound 9, (3S,7R)-5-Benzyl-19-(2,6-dimethylphenyl)-2-oxa-15λ^6-thia-5,9,16,18,21-pentaazatetracyclo[15.3.1.13,7.110,14]tricosa-1(20),10,12,14(22),17(21),18-hexaene-8,15,15-trione] | > 6.00 | +++ (+++ is >60%)
10 | Cc1cccc(C)c1-c1cc2nc(n1)NS(=O)(=O)c1cccc(n1)NC(=O)[C@H]1C[C@H](CN(C(=O)OC(C)(C)C)C1)O2 (single isomer, unassigned) [Compound 17, tert-butyl 19-(2,6-dimethylphenyl)-8,15,15-trioxo-2-oxa-15λ^6-thia-5,9,16,18,21,22-hexaazatetracyclo[15.3.1.13,7.110,14]tricosa-1(21),10,12,14(22),17,19-hexaene-5-carboxylate] |  | + (+ is <30%)
11 | Cc1cccc(C)c1-c1cc2nc(n1)NS(=O)(=O)c1cccc(c1)NC(=O)C1CC(O2)C(C)(C)N(Cc2ccccc2)C1 (single isomer, unassigned) [Compound 74, 5-benzyl-19-(2,6-dimethylphenyl)-4,4-dimethyl-2-oxa-15λ^6-thia-5,9,16,18,21-pentaazatetracyclo[15.3.1.13,7.110,14]tricosa-1(21),10,12,14(22),17,19-hexaene-8,15,15-trione] |  | + (+ is <30%)

Now from value to molecule, other results behind:

Row | pEC50 | SMILES | Ent. A Max Activity (%)
12 | > 6.00 | Cc1cccc(C)c1-c1cc2nc(n1)NS(=O)(=O)c1cccc(c1)NC(=O)[C@@H]1C[C@@H](CN(C(=O)OCC(C)(C)C)C1)O2 [Compound 34] | +++ (+++ is >60%)
13 | > 6.00 | Cc1cccc(C)c1-c1cc2nc(n1)NS(=O)(=O)c1cccc(n1)NC(=O)[C@@H]1C[C@@H](CN(C(=O)OC(C)(C)C)C1)O2 (single isomer, unassigned) [Compound 16, tert-Butyl 19-(2,6-dimethylphenyl)-8,15,15-trioxo-2-oxa-15λ^6-thia-5,9,16,18,21,22-hexaazatetracyclo[15.3.1.13,7.110,14]tricosa-1(21),10,12,14(22),17,19-hexaene-5-carboxylate] | +++ (+++ is >60%)
14 | > 6.00 | Cc1cccc(C)c1-c1cc2nc(n1)NS(=O)(=O)c1cccc(n1)NC(=O)C1CC(CN(C(=O)OC(C)(C)C)C1)O2 (centres unmarked) [Compound 13, tert-Butyl 19-(2,6-dimethylphenyl)-8,15,15-trioxo-2-oxa-15λ^6-thia-5,9,16,18,21,22-hexaazatetracyclo[15.3.1.13,7.110,14]tricosa-1(21),10,12,14(22),17,19-hexaene-5-carboxylate] | +++ (+++ is >60%)
15 | 5.52 to 6.00 | Cc1cccc(C)c1-c1cc2nc(n1)NS(=O)(=O)c1cccc(c1)NC(=O)C1CN(C(=O)OC(C)(C)C)CCC1O2 (centres unmarked) [Compound 78] | ++ (++ is 30-60%)
16 | 5.52 to 6.00 | COC(=O)N1C[C@@H]2C[C@H](C1)C(=O)Nc1cccc(c1)S(=O)(=O)Nc1nc(cc(-c3c(C)cccc3C)n1)O2 [Compound 32] | +++ (+++ is >60%)
17 | > 6.00 | Cc1cccc(C)c1-c1cc2nc(n1)NS(=O)(=O)c1cccc(c1)NC(=O)[C@@H]1C[C@@H](CN(CCCC(C)(C)C)C1)O2 [Compound 22] | ++ (++ is 30-60%)
18 | > 6.00 | Cc1cccc(C)c1-c1cc2nc(n1)NS(=O)(=O)c1cccc(c1)NC(=O)[C@@H]1C[C@@H](CN(S(=O)(=O)CC(C)(C)C)C1)O2 [Compound 19] | ++ (++ is 30-60%)
19 | 4.52 to 5.52 | Cc1cccc(C)c1-c1cc2nc(n1)NS(=O)(=O)c1cccc(c1)NC(=O)[C@@H]1C[C@H](O2)C(=O)N(CCC(C)(C)C)C1 [Compound 91] | + (+ is <30%)
20 | > 6.00 | CCCCCOC(=O)N1C[C@@H]2C[C@H](C1)C(=O)Nc1cccc(c1)S(=O)(=O)Nc1nc(cc(-c3c(C)cccc3C)n1)O2 [Compound 35] | +++ (+++ is >60%)
21 | > 6.00 | CCCCN1C[C@@H]2C[C@H](C1)C(=O)Nc1cccc(c1)S(=O)(=O)Nc1nc(cc(-c3c(C)cccc3C)n1)O2 [Compound 40] | ++ (++ is 30-60%)
22 | > 6.00 | Cc1cccc(C)c1-c1cc2nc(n1)NS(=O)(=O)c1cccc(c1)NC(=O)[C@@H]1C[C@@H](CN(C(=O)C3C(C)(C)C3(C)C)C1)O2 [Compound 37] | ++ (++ is 30-60%)
23 | 4.52 to 5.52 | Cc1cccc(C)c1-c1cc2nc(n1)NS(=O)(=O)c1cccc(c1)NC(=O)[C@@H]1C[C@H](O2)C(=O)N(CCC(C)(C)C)C1 [Compound 88] | ++ (++ is 30-60%)
24 | > 6.00 | Cc1cccc(C)c1-c1cc2nc(n1)NS(=O)(=O)c1cccc(c1)NC(=O)[C@@H]1C[C@@H](CN(CCC(C)(C)C3CC3)C1)O2 [Compound 26] | +++ (+++ is >60%)
25 | 4.52 to 5.52 | Cc1cccc(C)c1-c1cc2nc(n1)NS(=O)(=O)c1cccc(n1)NC(=O)C1CC(CN(C(=O)OC(C)(C)C)C1)O2 (centres unmarked) [Compound 18] | +++ (+++ is >60%)
